Experimental data: patent US10196357B2, “Biaryl compositions and methods for modulating a kinase cascade” (Athenex, Inc., priority 2007, dated 2019)
Where two headings read alike, the source gives them in different places.

What was measured:
c-Src 3T3 cells = assay: BrdU cell growth inhibition, c-Src 3T3; assay type: cell-based, mouse; details: for GI50: c-Src 3T3 (c-Src527F/NIH3T3) cells; for activity at 0.1 µM / activity at 1 µM / activity at 10 µM: NIH3T3, read-out: c-Src 3T3 Growth, % of Control Mean, n = 3; for activity at 0.1 µM: 100 nM
Experimental: (§1) The GI50s for several of the compounds of the invention were assayed as described herein.
The cells were routinely cultured in DMEM supplemented with Fetal Bovine Serum (2.0% v/V), L-glutamine (2 mM) and Sodium Pyruvate (1 mM).
(§2) In the BrdU Assay for cell growth inhibition, quantitation of cell proliferation was based on the measurement of BrdU incorporation during DNA synthesis. The Cell Proliferation ELISA BrdU assay kit (colorimetric) was obtained from Roche Applied Science and performed as per vendor instructions.
(§3) The growth inhibition (GI) is determined from the formula GI=(T0−Tn×100/T0−CONn) where T0 is the BrdU growth of untreated cells at time “0”, Tn is the BrdU growth of treated cells at day “n” and CONn is the control BrdU growth of control cells at day “n”. The GI50 was extrapolated and the data plotted using XL-Fit 4.0 software.
(§4) For 96 well culture plate experiments, c-Src 3T3 medium was supplemented with 10 mM HEPES buffer. HT-29 cells were seeded in standard tissue culture 96-well plates and c-Src 3T3 cells were seeded in 96-well plates coated with Poly-D-lysine (BIOCOAT™). To increase CO2 diffusion, c-Src 3T3 96-well plates were incubated with their lids raised by ˜2 mm using sterile rubber caps.
(§5) Samples were reconstituted in DMSO at 20 mM and intermediate dilutions made using DMEM containing 10% FBS. […] Plates were assayed for BrdU and the data analyzed as above for GI50.
(§6) All compounds were initially prepared as 20 mM DMSO stock solutions and then diluted into buffer for the in vitro tumor growth assays. NG means no cell growth beyond the control and T means the number of cells in the drug treated wells was less than in the control (i.e. net cell loss).

HT29 cell line = assay: BrdU cell growth inhibition, HT29; assay type: cell-based, human; details: for activity at 0.05 µM / activity at 0.5 µM / activity at 5 µM: HT-29, read-out: HT-29 Growth, % of Control Mean, n = 3; for activity at 0.05 µM: 50 nM; for activity at 0.5 µM: 500 nM
Experimental: as §1
The HT29 cell line is a NCI standard human colon carcinoma cell line.
as §2, §3, §4, §5, §6
Growth Inhibition. […] T1 values≤T0 values were designated as T, cytotoxicity.

[1] = Homo sapiens, HT-29, HT29 (Colon) cells, read-out: GI50

| GI50 (HT29 cell line; [1]) [nM] | GI50 (HT29 cell line; HT29 (Colon) cells) | Compound | GI50 (c-Src 3T3 cells; Mus musculus, read-out: GI50) [nM] | activity at 0.1 µM (c-Src 3T3 cells; Mus musculus) [%] | activity at 1 µM (c-Src 3T3 cells; Mus musculus) [%] | activity at 10 µM (c-Src 3T3 cells; Mus musculus) [%] | activity at 0.05 µM (HT29 cell line; Homo sapiens) [%] | activity at 0.5 µM (HT29 cell line; Homo sapiens) [%] | activity at 5 µM (HT29 cell line; Homo sapiens) [%] | GI50 (c-Src 3T3 cells) |
| --- | --- | --- | --- | --- | --- | --- | --- | --- | --- | --- |
| 330 |  | CN1CCN(CCOc2cc(OC3CCOCC3)c3c(Nc4c(Cl)ccc5c4OCO5)ncnc3c2)CC1 [AZD0530, reference compound] | 203 |  |  |  |  |  |  |  |
|  |  | CCOc1ccc(-c2ccc(CC(=O)NCc3cc(F)cc(N4CCCCC4)c3)nc2)cc1 [KX2-379] |  | 106 | 104 | < 0 | 89 | 88 | < 0 |  |
|  |  | CC(C)COc1cc(F)cc(CNC(=O)Cc2ccc(-c3ccc(N4CCOCC4)cc3)cn2)c1 [KX2-370] |  | 104 | 105 | 106 | 112 | 93 | 81 |  |
| 111 |  | O=C(Cc1ccc(-c2ccc(OCCN3CCOCC3)cc2)cn1)NCc1cccc(F)c1 [KX2-377] | 118 | < 0 | < 0 | < 0 | < 0 | < 0 | < 0 |  |
|  |  | CS(=O)(=O)c1ccc(-c2ccc(CC(=O)NCc3cccc(F)c3)cn2)cc1 [KX1-326, N-(3-Fluoro-benzyl)-2-[6-(4-methanesulfonyl-phenyl)-pyridin-3-yl]-acetamide] |  | 92.2 | 87.3 | 55.7 | 65.4 | 73.2 | 43.7 |  |
|  |  | O=C(Cc1ccc(-c2cccnc2)cc1)NCc1cccc(F)c1 [KX1-316] | > 200 | 88.2 | < 0 | < 0 | 77.8 | 45.1 | < 0 |  |
|  | inactive | CC(C)COc1cc(F)cc(CNC(=O)Cc2ccc(-c3ccc(OCCN4CCCCC4)cc3)cn2)c1 [KX2-386] | 897 |  |  |  |  |  |  |  |
|  |  | CCOc1ccccc1-c1ccc(CC(=O)NCc2cccc(F)c2)cn1 [KX1-324, 2-[6-(2-Ethoxy-phenyl)-pyridin-3-yl]-N-(3-fluoro-benzyl)-acetamide] |  | 96 | 90 | < 0 | 91 | 95.7 | 0 |  |
|  | inactive | CCOc1ccc(-c2ccc(CC(=O)NCc3cccc(F)c3)nc2)c(OCCN2CCN(C)CC2)c1 [KX2-384] | 1430 |  |  |  |  |  |  |  |
|  |  | CCc1ccc(-c2ccc(CC(=O)NCc3cccc(F)c3)cn2)cc1 [KX1-318, 2-[6-(4-Ethyl-phenyl)-pyridin-3-yl]-N-(3-fluoro-benzyl)-acetamide] |  | 91.4 | 71 | < 0 | 165 | 93.2 | < 0 |  |
|  |  | O=C(Cc1ccc(-c2cccc(F)c2)cc1)NCc1cccc(F)c1 [KX1-310, N-(3-fluorobenzyl)-4-(3-fluorophenyl)phenylacetamide] |  | 102 | < 0 | < 0 | 93.3 | < 0 | < 0 |  |
| 906 |  | CCOc1ccc(-c2ccc(CC(=O)NCc3cc(F)cc(N4CCN(C)CC4)c3)nc2)cc1 [KX2-388] | > 1600 |  |  |  |  |  |  |  |
|  |  | CCOc1cccc(-c2ccc(CC(=O)NCc3cccc(F)c3)cn2)c1 [KX1-322, 2-[6-(3-Ethoxy-phenyl)-pyridin-3-yl]-N-(3-fluoro-benzyl)-acetamide] | 3730 | 94.6 | < 0 | < 0 | 114 | 87.2 | < 0 |  |
|  |  | O=C(Cc1ccc(-c2ccc(C(=O)O)cc2)nc1)NCc1cccc(F)c1 [KX1-323, 4-{5-[(3-Fluoro-benzylcarbamoyl)-methyl]-pyridin-2-yl}-benzoic acid] |  | 96.6 | 97.3 | 93.2 | 106 | 107 | 60.8 |  |
| > 400 |  | CN1CCN(Cc2ccc(-c3ccc(CC(=O)NCc4cccc(F)c4)nc3)cc2)CC1 [KX2-376] | > 1600 | < 0 | < 0 | < 0 | 96 | 93 | < 0 |  |
| 375 |  | CCOc1ccc(-c2ccc(CC(=O)NCc3cc(F)cc(OCC4CCN(C)CC4)c3)nc2)cc1 [KX2-381] | 914 | 116 | < 0 | < 0 | 58 | < 0 | < 0 |  |
| 173 |  | COc1cc(Nc2c(C#N)cnc3cc(OCCCN4CCN(C)CC4)c(OC)cc23)c(Cl)cc1Cl [SKI-606] | 208 |  |  |  |  |  |  |  |
| 1860 |  | CC(C)COc1cc(F)cc(CNC(=O)Cc2ccc(-c3ccc(OCCN4CCOCC4)cc3)cn2)c1 [KX2-387] |  |  |  |  |  |  |  | inactive |
|  |  | CN(Cc1cccc(F)c1)C(=O)Cc1ccc(-c2ccccc2)cc1 [KX1-312, N-(3-fluorobenzyl)-N-methyl-4-biphenylacetamide] |  | 98.5 | 94.5 | 12.1 | 93.7 | 67.6 | 33.7 |  |
| 52 |  | O=C(Cc1ccc(-c2ccc(CN3CCOCC3)cc2F)cn1)NCc1cccc(F)c1 [KX2-393] | 24 |  |  |  |  |  |  |  |
|  |  | O=C(Cc1ccc(-c2cccc(F)c2)nc1)NCc1cccc(F)c1 [KX1-321, N-(3-Fluoro-benzyl)-2-[6-(3-fluoro-phenyl)-pyridin-3-yl]-acetamide] |  | 95.5 | 96.2 | 55.8 | 127 | 118 | 23.7 |  |
| 67 |  | O=C(Cc1ccc(-c2ccc(N3CCCCC3)cc2)cn1)NCc1cccc(F)c1 [KX2-372] | 58 | < 0 | < 0 | < 0 | < 0 | < 0 | < 0 |  |
|  |  | CCOc1ccccc1-c1ccc(CC(=O)NCc2cc(F)cc(OCC(C)C)c2)nc1 [KX2-369] |  | 100 | 101 | < 0 | 87 | 72 | < 0 |  |
|  |  | CCOc1ccc(-c2ccc(CC(=O)NCc3cc(F)cc(OCCN4CCCCC4)c3)nc2)cc1 [KX2-380] |  | 124 | 119 | < 0 | 100 | 50 | < 0 |  |
|  |  | CCOc1ccc(-c2ccc(CC(=O)NCc3cc(F)cc(N4CCOCC4)c3)nc2)cc1 [KX2-382] |  | 117 | 114 | 103 | 80 | 97 | 50 |  |
|  |  | O=C(Cc1ccc(-c2ccc(F)cc2)cc1)NCc1cccc(F)c1 [KX1-311, N-(3-fluorobenzyl)-4-(4-fluorophenyl)phenylacetamide] |  | 81.3 | < 0 | < 0 | 60.4 | < 0 | < 0 |  |
| 215 |  | CCOc1ccc(-c2ccc(CC(=O)NCc3cccc(F)c3)cn2)cc1 [KX1-325, 2-[6-(4-Ethoxy-phenyl)-pyridin-3-yl]-N-(3-fluoro-benzyl)-acetamide] | 207 | 97.6 | 54.2 | < 0 | 85 | < 0 | < 0 |  |
|  |  | CC(C)COc1cc(F)cc(CNC(=O)Cc2ccc(-c3ccc(OCCN4CCN(C)CC4)cc3)cn2)c1 [KX2-367] |  | 102 | < 0 | < 0 | 64 | 6 | < 0 |  |
|  |  | CCOc1ccc(-c2ccc(CC(=O)NCc3cc(F)cc(OCCN4CCOCC4)c3)nc2)cc1 [KX2-378] |  | 122 | 107 | 48 | 88 | 61 | < 0 |  |
